Experimental data: PubChem BioAssay (NCI)
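Tested at 5 concentrations; 48 h exposure; 96-well plates; endpoints linearly interpolated, else capped at highest concentration. Abbreviation: GI50, concentration required for 50% inhibition of growth. TGI marks complete inhibition of growth.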

Experiments:
Experiment in all cases: growth of human tumour cells (NCI), 48 h
786-0 renal = system: 786-0 renal
A498 renal = system: A498 renal
A549 NSCLC = system: A549 NSCLC
ACHN renal = system: ACHN renal
BT-549 breast = system: BT-549 breast
CAKI-1 renal = system: CAKI-1 renal
CCRF-CEM leukemia = system: CCRF-CEM leukemia
COLO 205 colon = system: COLO 205 colon
DU-145 prostate = system: DU-145 prostate
HCC-2998 colon = system: HCC-2998 colon
HCT-116 colon = system: HCT-116 colon
HCT-15 colon = system: HCT-15 colon
HL-60(TB) leukemia = system: HL-60(TB) leukemia
HOP-62 NSCLC = system: HOP-62 NSCLC
HOP-92 NSCLC = system: HOP-92 NSCLC
HS 578T breast = system: HS 578T breast
HT29 colon = system: HT29 colon
IGROV1 ovarian = system: IGROV1 ovarian
K-562 leukemia = system: K-562 leukemia
KM12 colon = system: KM12 colon
LOX IMVI melanoma = system: LOX IMVI melanoma
M14 melanoma = system: M14 melanoma
MALME-3M melanoma = system: MALME-3M melanoma
MCF7 breast = system: MCF7 breast
MDA-MB-231 breast = system: MDA-MB-231 breast
MDA-MB-435 = system: MDA-MB-435
MOLT-4 leukemia = system: MOLT-4 leukemia
NCI-H226 lung = system: NCI-H226 lung
NCI-H23 lung = system: NCI-H23 lung
NCI-H460 lung = system: NCI-H460 lung
NCI-H522 lung = system: NCI-H522 lung
NCI/ADR-RES ovarian = system: NCI/ADR-RES ovarian
OVCAR-3 ovarian = system: OVCAR-3 ovarian
OVCAR-4 ovarian = system: OVCAR-4 ovarian
OVCAR-5 ovarian = system: OVCAR-5 ovarian
OVCAR-8 ovarian = system: OVCAR-8 ovarian
PC-3 prostate = system: PC-3 prostate
RPMI-8226 leukemia = system: RPMI-8226 leukemia
RXF 393 renal = system: RXF 393 renal
SF-268 CNS = system: SF-268 CNS
SF-295 CNS = system: SF-295 CNS
SF-539 CNS = system: SF-539 CNS
SK-MEL-2 melanoma = system: SK-MEL-2 melanoma
SK-MEL-28 melanoma = system: SK-MEL-28 melanoma
SK-MEL-5 melanoma = system: SK-MEL-5 melanoma
SK-OV-3 ovarian = system: SK-OV-3 ovarian
SN12C renal = system: SN12C renal
SNB-19 CNS = system: SNB-19 CNS
SNB-75 CNS = system: SNB-75 CNS
SR leukemia = system: SR leukemia
SW-620 colon = system: SW-620 colon
T-47D breast = system: T-47D breast
TK-10 renal = system: TK-10 renal
U251 CNS = system: U251 CNS
UACC-257 melanoma = system: UACC-257 melanoma
UACC-62 melanoma = system: UACC-62 melanoma
UO-31 renal = system: UO-31 renal

## Nc1c(C(=O)c2cccc(C(O)(CO)CO)c2)cnn1-c1ccc(F)cc1
786-0 renal
  GI50: > 25 µM
  TGI: > 25 µM
A498 renal
  GI50: > 25 µM
  TGI: > 25 µM
A549 NSCLC
  GI50: > 25 µM
  TGI: > 25 µM
ACHN renal
  GI50: > 25 µM
  TGI: > 25 µM
BT-549 breast
  GI50: > 25 µM
  TGI: > 25 µM
CAKI-1 renal
  GI50: > 25 µM
  TGI: > 25 µM
CCRF-CEM leukemia
  GI50: > 25 µM
  TGI: > 25 µM
COLO 205 colon
  GI50: > 25 µM
  TGI: > 25 µM
DU-145 prostate
  GI50: > 25 µM
  TGI: > 25 µM
HCC-2998 colon
  GI50: > 25 µM
  TGI: > 25 µM
HCT-116 colon
  GI50: > 25 µM
  TGI: > 25 µM
HCT-15 colon
  GI50: > 25 µM
  TGI: > 25 µM
HL-60(TB) leukemia
  GI50: > 25 µM
  TGI: > 25 µM
HOP-62 NSCLC
  GI50: > 25 µM
  TGI: > 25 µM
HOP-92 NSCLC
  GI50: > 25 µM
  TGI: > 25 µM
HS 578T breast
  GI50: > 25 µM
  TGI: > 25 µM
HT29 colon
  GI50: > 25 µM
  TGI: > 25 µM
IGROV1 ovarian
  GI50: > 25 µM
  TGI: > 25 µM
K-562 leukemia
  GI50: > 25 µM
  TGI: > 25 µM
KM12 colon
  GI50: > 25 µM
  TGI: > 25 µM
LOX IMVI melanoma
  GI50: > 25 µM
  TGI: > 25 µM
M14 melanoma
  GI50: > 25 µM
  TGI: > 25 µM
MALME-3M melanoma
  GI50: > 25 µM
  TGI: > 25 µM
MCF7 breast
  GI50: > 25 µM
  TGI: > 25 µM
MDA-MB-231 breast
  GI50: > 25 µM
  TGI: > 25 µM
MDA-MB-435
  GI50: > 25 µM
  TGI: > 25 µM
MOLT-4 leukemia
  GI50: > 25 µM
  TGI: > 25 µM
NCI-H226 lung
  GI50: > 25 µM
  TGI: > 25 µM
NCI-H23 lung
  GI50: > 25 µM
  TGI: > 25 µM
NCI-H460 lung
  GI50: > 25 µM
  TGI: > 25 µM
NCI-H522 lung
  GI50: > 25 µM
  TGI: > 25 µM
NCI/ADR-RES ovarian
  GI50: > 25 µM
  TGI: > 25 µM
OVCAR-3 ovarian
  GI50: > 25 µM
  TGI: > 25 µM
OVCAR-4 ovarian
  GI50: > 25 µM
  TGI: > 25 µM
OVCAR-5 ovarian
  GI50: > 25 µM
  TGI: > 25 µM
OVCAR-8 ovarian
  GI50: > 25 µM
  TGI: > 25 µM
PC-3 prostate
  GI50: > 25 µM
  TGI: > 25 µM
RPMI-8226 leukemia
  GI50: > 25 µM
  TGI: > 25 µM
RXF 393 renal
  GI50: > 25 µM
  TGI: > 25 µM
SF-268 CNS
  GI50: > 25 µM
  TGI: > 25 µM
SF-295 CNS
  GI50: > 25 µM
  TGI: > 25 µM
SF-539 CNS
  GI50: > 25 µM
  TGI: > 25 µM
SK-MEL-2 melanoma
  GI50: > 25 µM
  TGI: > 25 µM
SK-MEL-28 melanoma
  GI50: > 25 µM
  TGI: > 25 µM
SK-MEL-5 melanoma
  GI50: > 25 µM
  TGI: > 25 µM
SK-OV-3 ovarian
  GI50: > 25 µM
  TGI: > 25 µM
SN12C renal
  GI50: > 25 µM
  TGI: > 25 µM
SNB-19 CNS
  GI50: > 25 µM
  TGI: > 25 µM
SNB-75 CNS
  GI50: > 25 µM
  TGI: > 25 µM
SR leukemia
  GI50: > 25 µM
  TGI: > 25 µM
SW-620 colon
  GI50: > 25 µM
  TGI: > 25 µM
T-47D breast
  GI50: > 25 µM
  TGI: > 25 µM
TK-10 renal
  GI50: > 25 µM
  TGI: > 25 µM
U251 CNS
  GI50: > 25 µM
  TGI: > 25 µM
UACC-257 melanoma
  GI50: > 25 µM
  TGI: > 25 µM
UACC-62 melanoma
  GI50: > 25 µM
  TGI: > 25 µM
UO-31 renal
  GI50: > 25 µM
  TGI: > 25 µM
